One data set concerns L929. Briefly: Anti-necroptotic activity in TZ-induced mouse L929 cells assessed as increase in cell viability preincubated with Z-VAD-FMK followed by mTNFalpha stimulation for 4 hrs and measured after compound addition by CellTiter-Lumi luminescent cell viability assay. The class given is functional, cell-based.
In a further data set the test system is EOL1. Briefly: Anti-necroptotic activity in TSZ-induced human EOL1 cells assessed as increase in cell viability at 2.5 to 20 uM preincubated with compound followed by Z-VAD-FMK, SM164 and TNFalpha addition and measured after 7 hrs by CellTiter-Lumi luminescent cell viability assay relative to control. The class given is functional. The note with it: dose 2.5-20 µM.

A further data set concerns Mus musculus. Kind of data set: Anti-necroptotic activity in TNFalpha/Z-VAD-FMK induced SIRS male C57BL/6J mouse model assessed as protection from death at 2.5 to 10 mg/kg, po pre-administered with compound via gavage for 2 hrs followed by […] of Z-VAD-FMK stimulation for 15 mins with subsequent TNF-alpha stimulation for 1 hrs and re-current […] of Z-VAD-FMK stimulation and measured after 8 hrs post SIRS induction. The note with it: dose 2.5-10 mg/kg, time 10.0 hrs. The class given is functional, organism-based.

Data set [1] can be described thus: Bioavailability in Sprague-Dawley rat at 10 mg/kg, IG measured after 24 hrs by LC-MS/MS analysis. The class given is ADME, organism-based. As to conditions: in vivo, po.
Data set [2] is described as follows: Acute toxicity in male C57BL/6J mouse assessed as effect on creatinine level at 2 g/Kg, IG measured after 72 hrs. As to conditions: in vivo, po, 2000 mg/kg.
Data set [3] is described as follows: Acute toxicity in male C57BL/6J mouse assessed as inflammatory cell infiltration in heart at 2 g/Kg, IG measured after 72 hrs by H and E staining based analysis. The class given is tissue-based. The note with it: in vivo, po, 2000 mg/kg.
The nature of data set [4]: Acute toxicity in male C57BL/6J mouse assessed as hemorrhage in heart at 2 g/Kg, IG measured after 72 hrs by H and E staining based analysis. The class given is tissue-based. As to conditions: in vivo, po, 2000 mg/kg.
Data set [5] is described as follows: Acute toxicity in male C57BL/6J mouse assessed as structural changes in kidney at 2 g/Kg, IG measured after 72 hrs by H and E staining based analysis. The class given is tissue-based. As to conditions: in vivo, po, 2000 mg/kg.
A short description of data set [6]: Acute toxicity in male C57BL/6J mouse assessed as inflammatory cell infiltration in intestine at 2 g/Kg, IG measured after 72 hrs by H and E staining based analysis. The class given is tissue-based. As to conditions: in vivo, po, 2000 mg/kg.
In data set [7] the target is T1, Receptor-interacting serine/threonine-protein kinase 1 (Homo sapiens) (UniProt Q13546).
T1 sequence (whole entry): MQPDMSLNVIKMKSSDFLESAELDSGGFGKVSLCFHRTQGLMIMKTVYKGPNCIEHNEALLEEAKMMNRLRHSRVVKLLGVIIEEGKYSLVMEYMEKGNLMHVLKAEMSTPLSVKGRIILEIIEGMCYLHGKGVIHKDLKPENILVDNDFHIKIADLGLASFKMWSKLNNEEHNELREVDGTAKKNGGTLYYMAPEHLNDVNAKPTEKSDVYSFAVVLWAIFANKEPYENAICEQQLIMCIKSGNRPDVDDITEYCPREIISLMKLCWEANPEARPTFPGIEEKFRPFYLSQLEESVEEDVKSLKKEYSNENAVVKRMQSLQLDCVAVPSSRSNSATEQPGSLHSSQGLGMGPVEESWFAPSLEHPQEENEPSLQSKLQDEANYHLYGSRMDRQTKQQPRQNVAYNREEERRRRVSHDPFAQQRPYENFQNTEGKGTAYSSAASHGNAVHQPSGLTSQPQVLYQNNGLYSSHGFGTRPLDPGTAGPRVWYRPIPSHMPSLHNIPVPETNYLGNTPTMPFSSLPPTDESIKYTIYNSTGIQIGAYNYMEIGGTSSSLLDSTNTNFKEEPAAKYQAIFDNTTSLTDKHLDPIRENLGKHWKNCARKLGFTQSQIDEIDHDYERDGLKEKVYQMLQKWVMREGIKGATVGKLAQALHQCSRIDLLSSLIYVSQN
Kind of data set: Inhibition of RIPK1 phosphorylation at S166 residue in TSZ-induced human HT-29 cells at 10 uM preincubated with compound followed by Z-VAD-FMK, SM164 and TNFalpha stimulation and measured after 6 hrs by Western blot analysis. The class given is cell-based. (Immunoblotting shows a protein as a band on a membrane.)

In data set [8] the target is Receptor-interacting serine/threonine-protein kinase 3 (Homo sapiens) (UniProt Q9Y572). Kind of data set: Inhibition of RIPK3 phosphorylation at S227 residue in TSZ-induced human HT-29 cells at 10 uM preincubated with compound followed by Z-VAD-FMK, SM164 and TNFalpha stimulation and measured after 6 hrs by Western blot analysis. The class given is cell-based.
Chain of Receptor-interacting serine/threonine-protein kinase 3 (Homo sapiens) (Q9Y572 whole entry, looked up, the tested form may be a part): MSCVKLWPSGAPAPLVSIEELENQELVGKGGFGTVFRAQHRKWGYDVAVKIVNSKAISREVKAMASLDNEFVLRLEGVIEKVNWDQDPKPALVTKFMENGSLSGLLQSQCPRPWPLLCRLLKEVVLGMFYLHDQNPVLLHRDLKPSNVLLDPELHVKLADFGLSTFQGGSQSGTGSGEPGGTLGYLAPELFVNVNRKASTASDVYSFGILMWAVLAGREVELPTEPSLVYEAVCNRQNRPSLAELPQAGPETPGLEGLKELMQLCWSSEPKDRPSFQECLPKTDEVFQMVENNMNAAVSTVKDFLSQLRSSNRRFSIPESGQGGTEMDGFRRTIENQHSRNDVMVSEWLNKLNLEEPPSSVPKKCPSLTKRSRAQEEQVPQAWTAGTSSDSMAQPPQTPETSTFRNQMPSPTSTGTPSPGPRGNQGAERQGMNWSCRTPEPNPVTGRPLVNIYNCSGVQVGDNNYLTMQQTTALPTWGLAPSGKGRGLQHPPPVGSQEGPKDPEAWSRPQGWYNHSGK
The target in data set [9] is T2, Mixed lineage kinase domain-like protein (Homo sapiens) (UniProt Q8NB16).
T2 sequence (whole entry): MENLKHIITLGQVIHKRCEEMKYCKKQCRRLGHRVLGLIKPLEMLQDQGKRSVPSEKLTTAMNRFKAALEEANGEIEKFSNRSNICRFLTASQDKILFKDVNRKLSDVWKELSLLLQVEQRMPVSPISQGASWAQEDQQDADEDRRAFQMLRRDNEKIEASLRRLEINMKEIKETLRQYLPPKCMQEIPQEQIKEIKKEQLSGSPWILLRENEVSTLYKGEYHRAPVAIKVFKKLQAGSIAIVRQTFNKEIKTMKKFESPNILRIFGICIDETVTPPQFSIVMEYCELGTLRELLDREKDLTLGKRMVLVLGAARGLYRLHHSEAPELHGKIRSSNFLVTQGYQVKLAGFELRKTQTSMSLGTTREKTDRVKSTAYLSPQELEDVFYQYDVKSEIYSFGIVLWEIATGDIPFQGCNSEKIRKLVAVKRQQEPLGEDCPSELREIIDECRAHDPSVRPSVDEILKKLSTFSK
Briefly: Inhibition of MLKL phosphorylation at S358 residue in TSZ-induced human HT-29 cells at 10 uM preincubated with compound followed by Z-VAD-FMK, SM164 and TNFalpha stimulation and measured after 6 hrs by Western blot analysis. The class given is cell-based.

Data set [10] is described as follows: Inhibition of TSZ-mediated necrosome formation in human HT-29 cells at 10 uM preincubated with compound followed by Z-VAD-FMK, SM164 and TNFalpha stimulation and measured after 6 hrs by co-immunoprecipitation based Western blot analysis relative to control. The class given is functional.
The subject of data set [11] is HT-29. Briefly: Downregulation of RIPK3 protein level in human HT-29 cells at 3 to 6 uM incubated for 9 hrs by Western blot analysis. The class given is functional, cell-based. The note with it: dose 3-6 µM.
In data set [12] the test system is HT-29. Kind of data set: Downregulation of RIPK1 protein level in human HT-29 cells at 6 uM preincubated with MG132 for 2 hrs followed by compound addition and measured after 9 hrs by Western blot analysis. The class given is functional, cell-based.
The subject of data set [13] is HT-29. Briefly: Downregulation of RIPK1 protein level in human HT-29 cells at 6 uM preincubated with MLN4924 for 2 hrs followed by compound addition and measured after 9 hrs by Western blot analysis. The class given is functional, cell-based.
Data set [14] concerns HT-29. Briefly: Downregulation of MLKL protein level in human HT-29 cells at 6 uM preincubated with NH4Cl for 2 hrs followed by compound addition and measured after 9 hrs by Western blot analysis. The class given is functional, cell-based.
Data set [15] has as its system HeLa. Kind of data set: Downregulation of EGFR expression in RIPK3-deficient human HeLa cells at 0.75 to 6 uM incubated for 9 hrs by Western blot analysis. The class given is functional, cell-based. The note with it: dose 0.75-6 µM.
Data set [16] concerns HeLa. Kind of data set: Inhibition of MLKL protein expression in RIPK3-deficient human HeLa cells at 0.75 to 6 uM incubated for 9 hrs by Western blot analysis. The class given is functional, cell-based. As to conditions: dose 0.75-6 µM.
The test system of data set [17] is HT-29. Briefly: Downregulation of RIPK3 protein level in human HT-29 cell supernatant at 6 uM measured after 9 hrs by Western blot analysis. The class given is functional, cell-based.

Active and inactive are the calls of the source. The calls are words filed in the database; no cut-off is given here.

What is called EC50 is the concentration at which the effect is half-maximal. What is called bioavailability is the share of a dose that reaches the circulation, judged against a reference dose that is usually intravenous. Low values mean poor availability, high ones good availability. By inhibition is commonly meant the change of the read-out against control, counted positive when it falls.

Turning to `Cn1ccc(-c2ccc(NC(=O)[C@]34CCC(C)(C)C[C@H]3[C@H]3C(=O)C=C5[C@@]6(C)C=C(C#N)C(=O)C(C)(C)[C@@H]6CC[C@@]5(C)[C@]3(C)CC4)cc2)n1`, the EC50 in the data set on L929 turned out to be 4.12 µM. The Activity is 100% in the data set with EOL1; “Non-toxic” in [2]; “Non-toxic” in data set [3]; “Non-toxic” in data set [4]; “Non-toxic” in data set [5]; “Non-toxic” in [6]. In addition, the Activity entry in the data set on HT-29 [11] is listed as “Active; Significant Effect Observed”. In addition, the result in the data set with Mus musculus, in the data set on HT-29 [12], in the data set on HT-29 [13], with HT-29 [14], in the data set on HeLa [15] and in the data set with HT-29 [17] was Active. The bioavailability in data set [1] amounted to 4.66%. The inhibition entry (in data set [7]; in data set [8]; in data set [9]; with HeLa [16]) was “Active” throughout. In addition, the inhibition at 10 µM in data set [10] worked out at 100%.
